As usually defined, the IC50 is the concentration that inhibits the measured activity by half. A high value points to weaker potency.

Drawing on patent US20170022171A1, “2,5-DISUBSTITUTED CYCLOPENTANECARBOXYLIC ACIDS AND THEIR USE” (Bayer Pharma Aktiengesellschaft, priority 2014, published 2017), this text covers IC50 for 10 compounds.

What all share (format): biochemical
For one assay, the target named is T1, MMP-2 (Homo sapiens, UniProt P08253).
T1 construct: purchased R&D Systems 902-MP
T1 sequence (P08253 110-660): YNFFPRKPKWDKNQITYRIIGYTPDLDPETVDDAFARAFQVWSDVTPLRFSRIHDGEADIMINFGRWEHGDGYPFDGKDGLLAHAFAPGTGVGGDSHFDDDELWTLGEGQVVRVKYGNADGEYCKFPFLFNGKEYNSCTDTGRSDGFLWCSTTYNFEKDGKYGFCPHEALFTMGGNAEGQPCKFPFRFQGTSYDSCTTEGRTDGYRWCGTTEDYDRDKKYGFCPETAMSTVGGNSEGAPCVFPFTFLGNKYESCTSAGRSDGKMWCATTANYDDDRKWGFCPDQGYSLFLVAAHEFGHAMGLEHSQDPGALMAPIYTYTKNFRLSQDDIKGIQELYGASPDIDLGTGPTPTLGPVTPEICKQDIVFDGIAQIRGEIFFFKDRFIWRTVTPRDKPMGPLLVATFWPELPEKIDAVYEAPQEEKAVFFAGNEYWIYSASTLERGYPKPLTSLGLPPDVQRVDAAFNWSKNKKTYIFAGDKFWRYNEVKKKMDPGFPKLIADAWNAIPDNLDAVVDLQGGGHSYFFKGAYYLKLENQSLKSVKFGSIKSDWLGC
The assay can be described thus: In vitro MMP-2 inhibition test. The source says:
(§1) The MMP-mediated amidolytic cleavage of a suitable peptide substrate leads to an increase in fluorescent light here too. The signal intensity of the fluorescent light is directly proportional to the enzyme activity. The active concentration of a test compound at which half the enzyme is inhibited (50% signal intensity of the fluorescent light) is reported as the IC50 value.
(§2) Recombinant MMP-2 (from R&D Systems, 902-MP) is chemically activated in accordance with the manufacturer's instructions using APMA. 1 μl of the test compound to be analysed (as a solution in DMSO, suitable concentrations, for example, 1 nM to 30 μM) is pipetted into 24 μl of activated enzyme (final concentration, for example, 2 nM) in reaction buffer (50 mM Tris/HCl pH 7.5, 10 mM CaCl2, 150 mM NaCl, 0.05% Brij®-35) in a white 384-hole microtiter plate (MTP). The enzymatic reaction is started by adding the intramolecularly quenched Mca-Pro-Leu-Gly-Leu-Dpa(Dnp)-Ala-Arg-NH2 substrate (final concentration, for example, 10 μM; R&D Systems, ES-001), so as to result in a total test volume of 50 μl. The course of the MMP-2 reaction is measured by measuring the fluorescence intensity (excitation 320 nm, emission 410 nm) over a suitable period of time (for example over 120 min at a temperature of 32° C.).

For the next assay, the target named is T2, MMP-7 (Homo sapiens, UniProt P09237).
T2 construct: purchased R&D Systems 907-MP
T2 sequence (P09237 95-267): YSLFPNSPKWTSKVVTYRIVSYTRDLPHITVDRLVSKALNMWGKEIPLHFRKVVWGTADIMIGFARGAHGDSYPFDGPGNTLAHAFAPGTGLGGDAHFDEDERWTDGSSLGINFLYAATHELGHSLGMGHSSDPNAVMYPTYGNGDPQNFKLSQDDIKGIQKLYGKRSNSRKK
Briefly: In vitro MMP-7 inhibition test.
From the text: as §1
as §2, with “Recombinant MMP-7” for “Recombinant MMP-2”, “Systems, 907-MP)” for “Systems, 902-MP)”, “example, 0.5” for “example, 2”, “[…]” for “50 μl.”, “the MMP-7” for “the MMP-2”

The target in the next assay is T3, MMP-9 (Homo sapiens, UniProt P14780).
T3 construct: purchased R&D Systems 911-MP
T3 sequence (P14780 107-707 limits assumed): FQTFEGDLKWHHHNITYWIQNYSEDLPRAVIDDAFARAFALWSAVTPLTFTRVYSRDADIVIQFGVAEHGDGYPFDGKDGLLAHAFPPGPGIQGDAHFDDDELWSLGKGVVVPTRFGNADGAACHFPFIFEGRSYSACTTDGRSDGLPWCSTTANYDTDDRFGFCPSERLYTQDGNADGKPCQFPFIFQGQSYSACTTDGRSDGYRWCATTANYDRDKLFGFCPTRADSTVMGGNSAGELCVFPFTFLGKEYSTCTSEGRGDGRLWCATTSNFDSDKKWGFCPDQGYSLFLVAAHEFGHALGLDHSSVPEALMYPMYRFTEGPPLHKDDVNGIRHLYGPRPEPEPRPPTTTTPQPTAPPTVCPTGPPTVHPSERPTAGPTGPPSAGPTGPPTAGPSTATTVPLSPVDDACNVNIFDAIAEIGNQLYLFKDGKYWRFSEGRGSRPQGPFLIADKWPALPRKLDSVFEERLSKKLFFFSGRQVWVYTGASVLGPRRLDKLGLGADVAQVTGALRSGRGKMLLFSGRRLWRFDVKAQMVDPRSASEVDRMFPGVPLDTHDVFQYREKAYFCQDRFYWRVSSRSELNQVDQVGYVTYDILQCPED
The assay can be described thus: In vitro MMP-9 inhibition test.
From the text: as §1
as §2, with “Recombinant MMP-9” for “Recombinant MMP-2”, “Systems, 911-MP)” for “Systems, 902-MP)”, “example, 0.1” for “example, 2”, “the MMP-9” for “the MMP-2”

A further assay concerns the target T4, MMP-10 (Homo sapiens, UniProt P09238).
T4 construct: purchased R&D Systems 910-MP
Briefly: In vitro MMP-10 inhibition test.
From the text: as §1
as §2, with “MMP-10” for “MMP-2”, “910-MP)” for “902-MP)”, “Mca-Arg-Pro-Lys-Pro-Val-Glu-Nval-Trp-Arg-Lys(Dnp)-NH2” for “Mca-Pro-Leu-Gly-Leu-Dpa(Dnp)-Ala-Arg-NH2”, “ES-002),” for “ES-001),”

T4 sequence (P09238 99-476): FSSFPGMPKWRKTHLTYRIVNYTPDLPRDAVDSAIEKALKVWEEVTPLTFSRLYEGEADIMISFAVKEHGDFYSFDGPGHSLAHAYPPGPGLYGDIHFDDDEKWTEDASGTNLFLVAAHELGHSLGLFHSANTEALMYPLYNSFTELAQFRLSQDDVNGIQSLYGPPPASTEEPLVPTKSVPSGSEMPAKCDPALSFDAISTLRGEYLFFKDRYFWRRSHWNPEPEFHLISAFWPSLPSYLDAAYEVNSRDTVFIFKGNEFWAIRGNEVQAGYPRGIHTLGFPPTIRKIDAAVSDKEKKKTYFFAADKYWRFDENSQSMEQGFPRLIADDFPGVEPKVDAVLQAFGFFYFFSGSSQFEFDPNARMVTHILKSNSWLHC

As to `Cc1cccc(COc2ccc(C(=O)[C@@H]3CC[C@H](Cn4nnc5ccc(C(F)(F)F)cc5c4=O)[C@H]3C(=O)O)cc2)c1` (single isomer, unassigned) [Example 16, (+)-(1RS,2RS,5SR)-2-{4-[(3-Methylbenzyl)oxy]benzoyl}-5-{[4-oxo-6-(trifluoromethyl)-1,2,3-benzotriazin-3(4H)-yl]methyl}cyclopentanecarboxylic acid], the IC50 on MMP-2 is 970 nM; against MMP-7, 190 nM; at MMP-9, 440 nM; against MMP-10 it was 37 nM.

Turning to “(+)-(1RS,2RS,5SR)-2-{4-[Cyclohexyl)methyl)sulphanyl]benzoyl}-5-{[4-oxo-6-(trifluoromethyl)-1,2,3-benzotriazin-3(4H)-yl]methyl}cyclopentanecarboxylic acid [Example 86]”, the concentration for half-maximal inhibition (IC50) was determined as 4800 nM against MMP-2, 1000 nM against MMP-7, 1500 nM at MMP-9 and 160 nM on MMP-10.

For `O=C(O)[C@H]1[C@H](Cn2nnc3ccccc3c2=O)CC[C@@H]1C(=O)c1ccc(OCCC2CCCCC2)cc1` (racemic) [Example 5, (+/−)-(1RS,2RS,5SR)-2-[4-(2-Cyclohexylethoxy)benzoyl]-5-[(4-oxo-1,2,3-benzotriazin-3(4H)-yl)methyl]cyclopentanecarboxylic acid], the half-inhibitory concentration (IC50) was 220 nM against MMP-2, 2400 nM against MMP-7, 960 nM against MMP-9 and 93 nM at MMP-10.

Regarding `Cc1ccc2nnn(C[C@@H]3CC[C@H](C(=O)c4ccc(OCc5cccc(C(F)(F)F)c5)cc4)[C@H]3C(=O)O)c(=O)c2c1` (racemic) [Example 100, (+/−)-(1RS,2SR,5RS)-2-[(6-Methyl-4-oxo-1,2,3-benzotriazin-3(4H)-yl)methyl]-5-(4-{[3-(trifluoromethyl)benzyl]oxy}benzoyl)cyclopentanecarboxylic acid], the half-maximal inhibitory concentration (IC50) stood at 540 nM at MMP-2, 1000 nM against MMP-7, 160 nM at MMP-9 and 160 nM at MMP-10.

`Cc1cccc(COc2ccc(C(=O)[C@@H]3CC[C@H](Cn4nnc5ccc(C)cc5c4=O)[C@H]3C(=O)O)cc2)c1` (single isomer, unassigned) [Example 98, (+)-(1RS,2RS,5SR)-2-{4-[(3-Methylbenzyl)oxy]benzoyl}-5-[(6-methyl-4-oxo-1,2,3-benzotriazin-3(4H)-yl)methyl]cyclopentanecarboxylic acid]: the half-maximal inhibitory concentration (IC50) on MMP-2 came to 440 nM; against MMP-7 it was 330 nM; at MMP-9, 280 nM; on MMP-10, 55 nM.

Regarding `O=C(O)[C@@H]1[C@@H](Cn2nnc3ccc(C(F)(F)F)cc3c2=O)CC[C@H]1C(=O)c1ccc(SCc2cccc(Cl)c2)cc1` (single isomer, unassigned) [Example 77, (+)-(1RS,2RS,5SR)-2-{4-[(3-Chlorobenzyl)sulphanyl]benzoyl}-5-{[4-oxo-6-(trifluoromethyl)-1,2,3-benzotriazin-3(4H)-yl]methyl}cyclopentanecarboxylic acid], the concentration for half-maximal inhibition (IC50) against MMP-2 amounted to 970 nM; against MMP-7 it was 150 nM; against MMP-9 it was 550 nM; against MMP-10, 30 nM.

With `O=C(O)[C@@H]1[C@@H](Cn2nnc3ccc(C(F)(F)F)cc3c2=O)CC[C@H]1C(=O)c1ccc(OCc2cccc(N3CCOC3=O)c2)cc1` (single isomer, unassigned) [Example 35, (+)-(1RS,2RS,5SR)-2-(4-{[3-(2-Oxo-1,3-oxazolidin-3-yl)benzyl]oxy}benzoyl)-5-{[4-oxo-6-(trifluoromethyl)-1,2,3-benzotriazin-3(4H)-yl]methyl}cyclopentanecarboxylic acid], the half-maximal inhibitory concentration (IC50) amounted to 450 nM on MMP-2, 31 nM against MMP-7, 1400 nM against MMP-9 and 53 nM at MMP-10.

For the compound `Cc1ccc2nnn(C[C@@H]3CC[C@H](C(=O)c4ccc(OCc5cccc(Cl)c5)cc4)[C@H]3C(=O)O)c(=O)c2c1` (racemic) [Example 103, (+/−)-(1RS,2RS,5SR)-2-{4-[(3-Chlorobenzyl)oxy]benzoyl}-5-[(6-methyl-4-oxo-1,2,3-benzotriazin-3(4H)-yl)methyl]cyclopentanecarboxylic acid], the half-inhibitory concentration (IC50) at MMP-2 was 370 nM; against MMP-7, 330 nM; against MMP-9, 110 nM; against MMP-10, 35 nM.

`CCCCCCOc1ccc(C(=O)[C@@H]2CC[C@H](Cn3nnc4ccc(C(F)(F)F)cc4c3=O)[C@H]2C(=O)O)cc1` (single isomer, unassigned) [Example 58, (+)-(1RS,2RS,5SR)-2-[4-(Hexyloxy)benzoyl]-5-{[4-oxo-6-(trifluoromethyl)-1,2,3-benzotriazin-3(4H)-yl]methyl}cyclopentanecarboxylic acid]: the half-inhibitory concentration (IC50) came to 580 nM against MMP-2, 180 nM against MMP-7, 83 nM on MMP-9 and 29 nM against MMP-10.

Turning to `COc1cccc(COc2ccc(C(=O)[C@H]3CC[C@@H](Cn4nnc5ccc(C)cc5c4=O)[C@@H]3C(=O)O)cc2)c1` (racemic) [Example 106, (+/−)-(1RS,2RS,5SR)-2-{4-[(3-Methoxybenzyl)oxy]benzoyl}-5-[(6-methyl-4-oxo-1,2,3-benzotriazin-3(4H)-yl)methyl]cyclopentanecarboxylic acid], the half-maximal inhibitory concentration (IC50) was 270 nM at MMP-2, 190 nM against MMP-7, 76 nM on MMP-9 and 39 nM against MMP-10.
